Assay results reported in US8937089B2, “Synergistic mixtures of anthranilamide invertebrate pest control agents” (priority 2004, dated 2015).
Where two headings read alike, the source gives them in different places.

Tests used:
Format in all cases: in vivo
[1] = tested on: silverleaf whitefly (Bemisia argentifolii); assay: Test G: systemic control of silverleaf whitefly, drip irrigation of tomato plant in greenhouse
Description: For evaluating systemic control of silverleaf whitefly (Bemisia argentifolii), each test unit consisted of a 10-inch (25.4 cm) pot with sand, and a tomato plant (var. Tiny Tim) at the 5 to 10 true leaf stage. Oxamyl was in the liquid formulation as Vydate® L and compound 1 was in a wettable powder formulation with 50% active ingredient. Test compounds in approximately 200 mL of water per pot were applied by drip irrigation in the greenhouse. Whitefly activity was evaluated on a naturally occurring population by removing 5 old leaves with clearly visible nymphs. When there were no leaves with clearly visible nymphs, 5 old leaves were removed at random. Leaves were evaluated for dead and live nymphs. For all tests, analysis was conducted by using Fisher's LSD test for means separation, at p=0.05 (see. K. A. Gomez and A. A. Gomez, “Statistical Procedures for Agricultural Research”, 2nd edition, John Wiley & Sons, New York, 680 pp). Mean comparisons were made within each evaluation date only.

[2] = tested on: beet armyworm (Spodoptera exigua); assay: Test H: systemic control of beet armyworm, drip irrigation of tomato plant, leaf discs, % mortality and % feeding; settings: mg ai/pot: Oxamyl 100, Compound 1 20, Oxamyl + Compound 1 100 + 20
Description: For evaluating systemic control of beet armyworm (Spodoptera exigua), each test unit consisted of a 10-inch (25.4 cm) pot filled with sand and containing a tomato plant (var. Tiny Tim) at the 5 to 10 true leaf stage. Oxamyl was in the liquid formulation as Vydate® L and compound 1 was in a wettable powder formulation with 50% active ingredient. Test compounds in approximately 200 mL of water per pot were applied by drip irrigation in the greenhouse. The plants were sampled at indicated date by cutting discs of the leaf material and placing each disc on a layer of agar gel in a 16-well, 1.5 oz. cup tray (B-150-S 0.028 Natural, Clear Pack Co., Franklin Park, Ill. 60131). One beet armyworm larva was added to each cell and the cells were covered. Trays were held in the growth chamber at 25° C., 16-hour light:8-hour dark, 60% relative humidity for 4 days. The percentage of mortality (abbreviated as % Morta.) and percentage of feeding (abbreviated as % feed), were visually assessed; the results are listed in Table 9. For all tests, analysis was conducted by using the LSD test. Mean comparisons were made within each evaluation date only.

[3] = tested on: diamondback moth (Plutella xylostella); assay: whole plant or invertebrate
How it was run: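 Aqueous compound dilutions sprayed to run-off on 28-day cabbage plants (3-4 leaves) via turntable sprayer. After 2 h drying, excised leaves were infested, one larva per cell, and held at 25° C and 60% relative humidity for 4 days.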

[4] = tested on: cabbage looper (Trichoplusia ni); assay: Test J: foliar control of cabbage looper, sprayed cabbage leaves, % mortality and % feeding; settings: for mortality at […]: Trichoplusia ni, foliar, read-out: % mortality (observed)
Description: For evaluating control of beet armyworm (Spodoptera exigua), methomyl was in the liquid formulation as Lannate® LV (29% of active ingredient). Compound 1 was in a water dispersible granules (WDG) formulation with 35% active ingredient. The test compounds were dissolved in water. Enough water was added to make 100 ppm of active ingredient for each compound. Serial dilutions were made to obtain the appropriate concentrations. To obtain the desired mixture concentrations of each compound, twice the desired concentration of each of the two mixture partner compounds were mixed together in equal volumes.
The diluted solutions of the test compounds were sprayed to run-off on three-week-old tomato plants. The plants were placed on a rotating turntable sprayer (10 rpm). Test solutions were applied using a flat fan air-assisted nozzle (Spraying Systems 122440) at 10 psi (69 kPa). After each treated plant had dried, leaves were excised from the treated plant. The leaves were cut into pieces, which were placed singly into 5.5 cm-by-3.5 cm cells of a sixteen-cell plastic tray. Each cell contained a 2.5-cm square of moistened chromatography paper to prevent desiccation. One insect was placed in each cell. There two trays per treatment. Trays were held in the growth chamber at 25° C., 16-hour light:8-hour dark, 60% relative humidity for 4 days.
For evaluating foliar control of cabbage looper (Trichoplusia ni), cabbage (var. Stonehead) plants were grown in Metromix potting soil in 10-cm pots in aluminum trays to test size (28 days, 3-4 full leaves). Test compounds were formulated and sprayed on test plants as described for Test I. After drying for 2 hours, the treated leaves were excised and infested with one cabbage looper per cell and covered. The test units were placed on trays and put in a growth chamber at 25° C. and 60% relative humidity for 4 days.

[5] = Day 6, mg ai/pot: Oxamyl 100, Compound 1 20, Oxamyl + Compound 1 100 + 20
[6] = Day 13, mg ai/pot: Oxamyl 100, Compound 1 20, Oxamyl + Compound 1 100 + 20
[7] = Day 20, mg ai/pot: Oxamyl 100, Compound 1 20, Oxamyl + Compound 1 100 + 20
[8] = Day 13 - old growth (first of two heads so printed, c4)
[9] = Day 13 - old growth (first of two heads so printed, c5)
[10] = Day 13 - old growth (second of two heads so printed, c6)
[11] = Day 13 - old growth (second of two heads so printed, c7)

What does the source list for `CNC(=O)O/N=C(\SC)C(=O)N(C)C` [Oxamyl]?
% Mortality [1, 5]: 6%; Nymphs number [1, 5]: 380; % Mortality [1, 6]: 34%; Nymphs number [1, 6]: 506; % Mortality [1, 7]: 28%; Nymphs number [1, 7]: 404; % Morta. ([2]; Day 6 new & old): 26%; % feed ([2]; Day 6 new & old): 49%; % Morta. [2, 8]: 35%; % feed [2, 9]: 43%; % Morta. [2, 10]: 40%; % feed [2, 11]: 40%; % Morta. ([2]; Day 20 - new growth): 25%; % feed ([2]; Day 20 - new growth): 92%; % Morta. ([2]; Day 20 - old growth): 31%; % feed ([2]; Day 20 - old growth): 65%

What does the source list for `COC(=O)N(C(=O)N1CO[C@@]2(C(=O)OC)Cc3cc(Cl)ccc3C2=N1)c1ccc(OC(F)(F)F)cc1` [Indoxacarb]?
% feeding ([3]; Indoxacarb 0.147 ppm): 13.8%; % mortality (observed) ([3]; Indoxacarb 0.147 ppm): 33%; % feeding ([3]; Indoxacarb 0.226 ppm): 3.5%; % mortality (observed) ([3]; Indoxacarb 0.226 ppm): 25%; % feeding ([3]; Indoxacarb 0.340 ppm): 0.5%; % mortality (observed) ([3]; Indoxacarb 0.340 ppm): 47%; % feeding ([3]; Indoxacarb 1 ppm): 0.1%; % mortality (observed) ([3]; Indoxacarb 1 ppm): 50%; % feeding ([4]; Indoxacarb 0.146 ppm): 68%; % mortality (observed) ([4]; Indoxacarb 0.146 ppm): 31%

Which results are given for `CNC(=O)c1cc(Cl)cc(C)c1NC(=O)c1cc(Br)nn1-c1ncccc1Cl` [Compound 1, 3-bromo-N-[4-chloro-2-methyl-6-[(methylamino)carbonyl]phenyl]-1-(3-chloro-2-pyridinyl)-1H-pyrazole-5-carboxamide]?
% feeding ([3]; Compound 1 0.007 ppm): 10.0%; % feeding ([3]; Compound 1 0.030 ppm): 0%; mortality at 0.007 ppm ([3]; Plutella xylostella, in Brassica oleracea, Compound 1 0.007 ppm, read-out: % mortality (observed)): 13%; mortality at […] ([3]; Plutella xylostella, in Brassica oleracea, Compound 1 0.013 ppm, read-out: % mortality (observed)): 34%; mortality at 0.03 ppm ([3]; Plutella xylostella, in Brassica oleracea, Compound 1 0.030 ppm, read-out: % mortality (observed)): 78%; mortality at 0.01 ppm ([3]; Plutella xylostella, in Brassica oleracea, rate 0.01 ppm, read-out: % mortality (obs)): 87%; mortality at 0.02 ppm ([3]; Plutella xylostella, in Brassica oleracea, rate 0.02 ppm, read-out: % mortality (obs)): 77%; mortality at 0.04 ppm ([3]; Plutella xylostella, in Brassica oleracea, rate 0.04 ppm, read-out: % mortality (obs)): 93%; % Mortality [1, 5]: 44%; Nymphs number [1, 5]: 316; % Mortality [1, 6]: 99%; Nymphs number [1, 6]: 194; % Mortality [1, 7]: 100%; Nymphs number [1, 7]: 300; mortality at […] ([4]; Compound 1 0.032 ppm): 9%; mortality at […] ([4]; Compound 1 0.057 ppm): 22%; % Morta. ([2]; Day 6 new & old): 99%; % feed ([2]; Day 6 new & old): 0%; % Morta. [2, 8]: 100%; % feed [2, 9]: 0%; % Morta. [2, 10]: 97%; % feed [2, 11]: 0%; % Morta. ([2]; Day 20 - new growth): 100%; % feed ([2]; Day 20 - new growth): 0%; % Morta. ([2]; Day 20 - old growth): 100%; % feed ([2]; Day 20 - old growth): 0%
